Source: patent publication US20060035983A1, “Methods for treating fungal infections” (priority 2002, published 2006)
≈ marks a conversion by molar mass, not a printed value.

How the values were obtained:
Trichophyton rubrum = test: Antifungal susceptibility testing (NCCLS M27-A), Trichophyton rubrum cultures in vitro; format: cell-based; details: for MIC80 / MIC100: 7 days at 30° C.; for MIC100: lowest concentration that inhibited 100% of fungal growth; for MFC: lowest concentration that killed at least 97% of the original inoculum; for fungicidal effect: result in words
Experimental: Suspensions were then treated with various polyoxyethylene alkyl ethers at a range of concentrations, and incubated for 7 days at 30° C. […] Minimum fungicidal concentrations (MFCs) were determined as the lowest concentration of compound that killed at least 97% of the original inoculum, as compared with the verified inoculum count.

[1] = critical micelle content; no method given; cited from earlier work
Candida Albicans = test: Additional fungal species susceptibility testing, Candida albicans; format: cell-based
Experimental: (§1) A number of polyoxyethylene alkyl ethers were tested for fungicidal activity against Trichophyton rubrum cultures in vitro according to standard methods (see, Approved Standard M27-A, National Commitee for […] Laboratory Standards, 1997). Briefly, inocula from Trichophyton rubrum were harvested from agar cultures, suspended in 0.85% saline, and diluted to a verified final concentration of […] colony-forming units (CFU) per ml. Suspensions were then treated with various polyoxyethylene alkyl ethers at a range of concentrations, and incubated for 7 days at 30° C. Minimum inhibitory concentrations (MICs) were determined as the lowest concentration of compound that inhibited 100% of fungal growth, as compared with a polyoxyethylene alkyl ether-free control suspension. Minimum fungicidal concentrations (MFCs) were determined as the lowest concentration of compound that killed at least 97% of the original inoculum, as compared with the verified inoculum count. Trichophyton rubrum is the causative organism in 68-100% of patients in onychomycosis trials (Crawford et al. (2002) Archives Dermatol. 138:811-816). Trichophyton Mentagrophytes is the causative organism in most of the rest. Although yeast and other nondermatophytes can cause onychomycosis, the incidence is small. Additional fungal species were tested for susceptibility to treatment with Laureth-4 as described in Example 1.

Aspergillus flavus = test: Additional fungal species susceptibility testing, Aspergillus flavus; format: cell-based
Experimental: as §1

Candida Parapsilosis = test: Additional fungal species susceptibility testing, Candida parapsilosis; format: cell-based
Experimental: as §1

[2] = tested on: Scopulariopsis brevicaulis; test: Additional fungal species susceptibility testing, Scopulariopsis brevicaulis; format: cell-based
Experimental: as §1

[3] = tested on: Trichophyton mentagrophytes; test: Additional fungal species susceptibility testing, Trichophyton mentagrophytes; format: cell-based
Experimental: as §1

Fusarium solani = test: Additional fungal species susceptibility testing, Fusarium solani; format: cell-based
Experimental: as §1

Compound | MIC80 (Trichophyton rubrum) [µg/mL] | MIC100 (Trichophyton rubrum) [µg/mL] | MFC (Trichophyton rubrum) [µg/mL] | CMC [1] [mM] | further results
Polyoxyethylene 2 cetyl ether [BRIJ 52] | 0.98 | 3.9 | 7.8 | – | –
C[C@H](CCC(=O)NCCC[N+](C)(C)CCCS(=O)(=O)[O-])[C@H]1CC[C@H]2[C@@H]3[C@H](O)C[C@@H]4C[C@H](O)CC[C@]4(C)[C@H]3C[C@H](O)[C@]12C [CHAPS] | 500 (≈ 813 µM) | 1000 (≈ 1630 µM) | – | 6 to 10 | –
Polyoxyethylenesorbitan monolaurate [Tween 20] | 125 | 500 | 1000 | 0.059 | –
CCCCCCCCS[C@@H]1O[C@H](CO)[C@@H](O)[C@H](O)[C@H]1O [n-octyl-β-D-thioglucopyranoside] | 500 (≈ 1620 µM) | 1000 (≈ 3240 µM) | – | 9 | –
Polyethylene glycol tert-octylphenyl ether [Triton X-100] | 31.25 | 1000 | – | 0.2 to 0.9 | –
Polyoxyethylene 2 oleyl ether [BRIJ 93] | 250 | 250 | 1000 | – | fungicidal effect (Trichophyton rubrum): loss of the effect
Polyoxyethylene 4 lauryl ether [BRIJ 30] | 0.98 | 1.95 | 1.95 | – | MFC (Candida Albicans): >5000 µg/mL; MIC80 (Candida Albicans): >5000 µg/mL; MIC100 (Candida Albicans): >5000 µg/mL; MFC (Aspergillus flavus): >5000 µg/mL; MIC80 (Aspergillus flavus): 39 µg/mL; MIC100 (Aspergillus flavus): >5000 µg/mL; MFC (Candida Parapsilosis): >5000 µg/mL; MIC80 (Candida Parapsilosis): 15.5 µg/mL; MIC100 (Candida Parapsilosis): >5000 µg/mL; MFC [2]: >5000 µg/mL; MIC80 [2]: 78 µg/mL; MIC100 [2]: >5000 µg/mL; MFC [3]: 625 µg/mL; MIC80 [3]: 5 µg/mL; MIC100 [3]: 625 µg/mL; MFC (Fusarium solani): >5000 µg/mL; MIC80 (Fusarium solani): 78 µg/mL; MIC100 (Fusarium solani): >5000 µg/mL
Polyoxyethylenesorbitan monopalmitate [Tween 60] | 250 | 500 | 1000 | 0.059 | –
Polyoxyethylene 2 stearyl ether [BRIJ 72] | 0.98 | 0.98 | 3.9 | – | –
Polyoxyethylene 20 cetyl ether [BRIJ 58] | 0.49 | 0.98 | 1.95 | – | –
Polyoxyethylene 20 cetyl/stearyl ether [BRIJ 68] | 1.95 | 3.9 | 15.6 | – | –
CCCCCCCCO[C@@H]1O[C@H](CO)[C@@H](O)[C@H](O)[C@H]1O [n-octyl-β-D-glucopyranoside] | 31.25 (≈ 107 µM) | 1000 (≈ 3420 µM) | – | 20 to 25 | –
Polyoxyethylene 23 lauryl ether [BRIJ 35] | 0.49 | 0.98 | 1.95 | 0.09 | –
Polyoxyethylene 20 stearyl ether [BRIJ 78] | 0.98 | 1.95 | 3.9 | – | –
Polyoxyethylene 20 oleyl ether [BRIJ 98] | 250 | 500 | 1000 | – | fungicidal effect (Trichophyton rubrum): loss of the effect
Polyoxyethylenesorbitan monooleate [Tween 80] | 250 | 1000 | 1000 | 0.059 | –
